According to US8273760B2, “Indolo[3,2-c]quinoline compounds” (Kaohsiung Medical University, priority 2008, dated 2012):
Structures can show the parent of a compound that is named as a salt. Where two headings read alike, the source gives them in different places.

Assays:
SR = assay: In vitro anticancer assay (NCI panel), SR; type: cell-based; conditions: Homo sapiens, leukemia
Description: (§1) Selected compounds were evaluated in vitro against the NCI's full panel of 60 cancer cell lines derived from nine cancer cell types, including: leukemia (CCRF-CEM, HL-60 (TB), K-562, MOLT-4, RPMI-8226, and SR); non-small cell lung cancer (A549/ATCC, EKVX, HOP-62, HOP-92, NCI-H226, NCI-H23, NCI-H322M, and NCI-H522); colon cancer (COLO 205, HCC-2998, HCT-116, HCT-15, HT29, KM12, and SW-620); CNS cancer (SF-268, SF-295, SF-539, SNB-19, SNB-75, and U251); melanoma (LOX IMVI, MALME-3M, M14, SK-MEL-2, SK-MEL-28, SK-MEL-5, UACC-62, and UACC-257); ovarian cancer (IGROV1, OVCAR-3, OVCAR-4, OVCAR-5, OVCAR-8, and SK-OV-3); renal cancer (786-0, A498, ACHN, CAKI-1, RXF 393, SN12C, TK-10, and UO-31); prostate cancer (PC-3 and DU-145); and breast cancer (MCF7, MCF7/ADR-RES, MDA-MB-231/ATCC, HS 578T, MDA-MB-435, MDA-N, and T-47D). For each compound, dose-response curves for each cell line were measured with five different drug concentrations, and the concentration causing 50% cell growth inhibition (GI50) compared with the control was calculated. The mean GI50 values of each tested compound for all the 60 tumor cell lines were also calculated.

SN12C = assay: In vitro anticancer assay (NCI panel), SN12C; type: cell-based; conditions: Homo sapiens, renal cancer
Description: as §1

LOX IMVI = assay: In vitro anticancer assay (NCI panel), LOX IMVI; type: cell-based; conditions: Homo sapiens, melanoma
Description: as §1

HOP-62 = assay: In vitro anticancer assay (NCI panel), HOP-62; type: cell-based; conditions: Homo sapiens; HOP-62, non-small cell lung cancer
Description: as §1

HCT-116 = assay: In vitro anticancer assay (NCI panel), HCT-116; type: cell-based; conditions: Homo sapiens; HCT-116, colon cancer
Description: as §1

DU-145 = assay: In vitro anticancer assay (NCI panel), DU-145; type: cell-based; conditions: Homo sapiens; DU-145, prostate cancer
Description: as §1

MDA-MB-231/ATCC = assay: In vitro anticancer assay (NCI panel), MDA-MB-231/ATCC; type: cell-based; conditions: Homo sapiens, breast cancer
Description: as §1

ACHN = assay: In vitro anticancer assay (NCI panel), ACHN; type: cell-based; conditions: Homo sapiens, renal cancer
Description: as §1

OVCAR-3 = assay: In vitro anticancer assay (NCI panel), OVCAR-3; type: cell-based; conditions: Homo sapiens; OVCAR-3, ovarian cancer
Description: as §1

SK-MEL-2 = assay: In vitro anticancer assay (NCI panel), SK-MEL-2; type: cell-based; conditions: Homo sapiens; SK-MEL-2, melanoma
Description: as §1

PC-3 = assay: In vitro anticancer assay (NCI panel), PC-3; type: cell-based; conditions: Homo sapiens; PC-3, prostate cancer
Description: as §1

SNB-19 = assay: In vitro anticancer assay (NCI panel), SNB-19; type: cell-based; conditions: Homo sapiens; SNB-19, CNS cancer
Description: as §1

HT29 = assay: In vitro anticancer assay (NCI panel), HT29; type: cell-based; conditions: Homo sapiens, HT-29; HT29, colon cancer
Description: as §1

MCF7 = assay: In vitro anticancer assay (NCI panel), MCF7; type: cell-based; conditions: Homo sapiens; MCF7, breast cancer
Description: as §1

[1] = test system: NCI's full panel of 60 cancer cell lines; assay: In vitro anticancer assay, all cell lines of the NCI panel; type: cell-based, human
Description: as §1

MDA-MB-435 = assay: In vitro anticancer assay (NCI panel), MDA-MB-435; type: cell-based; conditions: Homo sapiens; MDA-MB-435, breast cancer
Description: as §1

OVCAR-5 = assay: In vitro anticancer assay (NCI panel), OVCAR-5; type: cell-based; conditions: Homo sapiens; OVCAR-5, ovarian cancer
Description: as §1

K-562 = assay: In vitro anticancer assay (NCI panel), K-562; type: cell-based; conditions: Homo sapiens, K562; K-562, leukemia
Description: as §1

A549/ATCC = assay: In vitro anticancer assay (NCI panel), A549/ATCC; type: cell-based; conditions: Homo sapiens, non-small cell lung cancer
Description: as §1

UACC-62 = assay: In vitro anticancer assay (NCI panel), UACC-62; type: cell-based; conditions: Homo sapiens; UACC-62, melanoma
Description: as §1

OVCAR-8 = assay: In vitro anticancer assay (NCI panel), OVCAR-8; type: cell-based; conditions: Homo sapiens; OVCAR-8, ovarian cancer
Description: as §1

SF-295 = assay: In vitro anticancer assay (NCI panel), SF-295; type: cell-based; conditions: Homo sapiens; SF-295, CNS cancer
Description: as §1

HL-60 (TB) = assay: In vitro anticancer assay (NCI 60 cell line panel), HL-60 (TB); type: cell-based; conditions: Homo sapiens, leukemia
Description: as §1

telomerase = telomerase (Homo sapiens, UniProt O14746); assay: Telomeric Repeat Amplification Protocol (TRAP) assay, cell-free; conditions: 0.5 μg total cell extract from H1299 human lung cancer cells, FIG. 1
Sequence of telomerase (O14746 whole entry): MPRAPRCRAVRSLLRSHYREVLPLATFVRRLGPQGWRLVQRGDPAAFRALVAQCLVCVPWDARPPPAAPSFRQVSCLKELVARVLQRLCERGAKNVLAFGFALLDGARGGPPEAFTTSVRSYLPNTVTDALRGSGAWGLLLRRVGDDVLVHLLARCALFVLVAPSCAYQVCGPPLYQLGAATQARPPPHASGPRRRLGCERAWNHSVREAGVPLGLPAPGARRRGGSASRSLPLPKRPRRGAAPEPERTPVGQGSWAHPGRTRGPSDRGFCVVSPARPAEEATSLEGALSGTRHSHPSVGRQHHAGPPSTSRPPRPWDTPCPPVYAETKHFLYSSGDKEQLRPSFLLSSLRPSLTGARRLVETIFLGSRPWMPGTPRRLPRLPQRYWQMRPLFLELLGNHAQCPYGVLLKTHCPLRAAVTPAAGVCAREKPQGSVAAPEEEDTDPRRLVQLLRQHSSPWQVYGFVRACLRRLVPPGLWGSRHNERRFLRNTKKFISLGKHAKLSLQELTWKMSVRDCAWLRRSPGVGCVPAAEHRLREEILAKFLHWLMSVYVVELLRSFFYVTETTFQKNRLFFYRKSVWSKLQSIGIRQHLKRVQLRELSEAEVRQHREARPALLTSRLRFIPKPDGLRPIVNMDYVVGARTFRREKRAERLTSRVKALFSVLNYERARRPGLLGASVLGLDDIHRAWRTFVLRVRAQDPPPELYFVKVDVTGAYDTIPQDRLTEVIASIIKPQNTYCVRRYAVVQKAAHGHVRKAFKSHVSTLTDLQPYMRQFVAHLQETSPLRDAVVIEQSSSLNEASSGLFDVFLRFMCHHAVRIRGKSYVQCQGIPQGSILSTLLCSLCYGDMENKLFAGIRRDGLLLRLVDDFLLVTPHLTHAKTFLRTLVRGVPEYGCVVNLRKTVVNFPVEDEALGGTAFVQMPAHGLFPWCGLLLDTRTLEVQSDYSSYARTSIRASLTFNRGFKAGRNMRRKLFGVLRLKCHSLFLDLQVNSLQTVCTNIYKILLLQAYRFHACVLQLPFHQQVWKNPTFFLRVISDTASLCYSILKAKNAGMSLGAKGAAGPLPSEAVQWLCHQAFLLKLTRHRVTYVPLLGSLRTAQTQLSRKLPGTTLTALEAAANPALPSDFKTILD

SF-268 = assay: In vitro anticancer assay (NCI panel), SF-268; type: cell-based; conditions: Homo sapiens; SF-268, CNS cancer
Description: as §1

COLO 205 = assay: In vitro anticancer assay (NCI panel), COLO 205; type: cell-based; conditions: Homo sapiens; COLO 205, colon cancer
Description: as §1

786-0 = assay: In vitro anticancer assay (NCI panel), 786-0; type: cell-based; conditions: Homo sapiens; 786-0, renal cancer
Description: as §1

NCI-H460 = assay: In vitro anticancer assay (NCI panel), NCI-H460; type: cell-based; conditions: Homo sapiens; NCI-H460, non-small cell lung cancer
Description: as §1

[2] = Homo sapiens, mean values of over all cell lines tested, read-out: MG MID (mean GI50)

Row | Molecule | GI50 (SR) [µM] | GI50 (SN12C) [µM] | GI50 (LOX IMVI) [µM] | GI50 (HOP-62) [µM] | GI50 (HCT-116) [µM] | GI50 (DU-145) [µM] | GI50 (MDA-MB-231/ATCC) [µM] | GI50 (ACHN) [µM] | GI50 (OVCAR-3) [µM] | GI50 (SK-MEL-2) [µM] | GI50 (PC-3) [µM] | GI50 (SNB-19) [µM] | GI50 (HT29) [µM] | GI50 (MCF7) [µM] | GI50 [1, 2] [µM] | GI50 (MDA-MB-435) [µM] | GI50 (OVCAR-5) [µM] | GI50 (K-562) [µM] | GI50 (A549/ATCC) [µM] | GI50 (UACC-62) [µM] | also measured
1 | CN(CCCNc1nc2ccccc2c2[nH]c3ccccc3c12)CCCNc1nc2ccccc2c2[nH]c3ccccc3c12.Cl [Compound 8b, N,N-bis-[3-(11H-indolo[3,2-c]quinolin-6-yl)aminopropyl]-N-methylamine hydrochloride] | < 0.01 | < 0.01 | < 0.01 | < 0.01 | < 0.01 | 0.05 | 0.09 | 0.02 | 0.05 | 0.07 | 0.07 | < 0.01 | < 0.01 | < 0.01 | < 0.02 | 0.11 | 0.08 | < 0.01 | < 0.01 | 0.06 | GI50 ([1]; Homo sapiens, span over the cell lines of Table 2, read-out: GI50 value for each cell line (span over the cell lines)): 0.01 to 0.11 µM; GI50 (OVCAR-8): < 0.01 µM; GI50 (SF-295): < 0.01 µM; GI50 (HL-60 (TB)): < 0.01 µM; concentration that completely inhibited telomerase activity (telomerase): approximately 0.02 nM; GI50 (SF-268): < 0.01 µM; GI50 (COLO 205): 0.02 µM; GI50 (786-0): < 0.01 µM; GI50 (NCI-H460): < 0.01 µM
2 | CN(CCCN)CCCNc1nc2ccccc2c2[nH]c3ccccc3c12 [Compound 10, N^1-[3-(11H-Indolo[3,2-c]quinolin-6-ylamino)propyl]-N^1-methylpropane-1,3-diamine hydrochloride] | 0.37 | 0.07 | 0.21 | 0.15 | 0.08 | 0.24 | 0.17 | 0.38 | 0.22 | 0.2 | 0.32 | 0.15 | 0.15 | 0.05 | 0.18 | 0.19 | 0.15 | 0.04 | 0.08 | 0.19 | GI50 (OVCAR-8): 0.04 µM; GI50 (SF-295): 0.13 µM; GI50 (HL-60 (TB)): 0.09 µM; GI50 (SF-268): 0.25 µM; GI50 (COLO 205): 0.18 µM; GI50 (786-0): 0.09 µM; GI50 (NCI-H460): 0.31 µM
3 | c1ccc2c(c1)nc(NCCN1CCNCC1)c1c3ccccc3[nH]c21 (as salt: hydrochloride) [Compound 5, N-(11H-Indolo[3,2-c]quinolin-6-yl)-2-(piperazin-1-yl)ethanamine] | – | – | – | – | – | – | – | – | – | – | – | – | – | – | – | – | – | – | – | – | melting point: 210 to 211 °C
4 | c1ccc2c(c1)nc(NCCN1CCNCC1)c1c3ccccc3[nH]c21 [Compound 5, N-(11H-Indolo[3,2-c]quinolin-6-yl)-2-(piperazin-1-yl)ethanamine] | 0.18 | 0.08 | 0.2 | 0.4 | 0.07 | 0.16 | 0.34 | 0.38 | 0.27 | 1.06 | 0.31 | 0.3 | 0.12 | 0.08 | ~0.3 | 0.63 | 0.54 | 0.07 | 0.11 | 1.26 | GI50 ([1]; mean values of over all cell lines tested, read-out: MG MID (mean GI50)): 0.35 µM; GI50 (OVCAR-8): 0.04 µM; GI50 (SF-295): 0.31 µM; GI50 (HL-60 (TB)): 0.29 µM; concentration that completely inhibited telomerase activity (telomerase): approximately 0.02 nM; GI50 (SF-268): 0.5 µM; GI50 (COLO 205): 0.22 µM; GI50 (786-0): 0.22 µM; GI50 (NCI-H460): 0.19 µM
5 | 6-[2-(3,4-dihydroxyphenyl)ethylamino]-11 indolo[3,2-c]quinoline hydrochloride [Compound 7b] | – | – | – | – | – | – | – | – | – | – | – | – | – | – | – | – | – | – | – | – | concentration that completely inhibited telomerase activity (telomerase): approximately 2 nM
